{"source": "patent US20060111447A1", "about": "“Inhibiting progressive cognitive impairment” (priority 2002, published 2006)", "key": {"sAPPα": {"test_system": "sAPPα", "test": "sAPPα levels in SY5Y neuroblastoma cells (6E10 immunoreactivity, Western blot)", "type": "cell-based", "conditions": "1 μM and 5 μM"}, "[1]": {"conditions": "cited from earlier work"}, "in vivo": {"test": "in vivo", "conditions": "B6SJ1, mouse, brain relative to serum, oral, 1500 mg/kg of diet, level of nimesulide in the brain relative to serum levels, mice, nimesulide 1500 mg/kg of diet for three months, brain parenchyma"}, "γ-secretase [2]": {"test_system": "γ-secretase", "procedure": "(§1) FIG. 11A-B. CHO cells were transfected with APPswe and LacZ (open bars) or with APPswe and hCOX-2(filled bars), as in FIG. 10A-C.\nCHO cells were transfected with APPswe and LacZ (open bars) or with APPswe and hCOX-2 (filled bars), as in the preceding Section 11, and γ-secretase and Aβ42 levels were measured."}, "Aβ40 [3]": {"test_system": "Aβ40", "conditions": "CHO-APPswe cells, 0.1 micromolar, 24 hours", "procedure": "(§2) The amount of amyloid β peptides produced was measured by an ELISA assay from BioSource (Camarillo, Calif.). Samples were diluted 1:10 in buffer (0.05% (v/v) Tween-20, 1 mM Pefabloc protease inhibitors) followed by centrifugation for 20 minutes at 4° C. Total Aβ40 or Aβ42 were measured by sandwich ELISA following the manufacturer's instructions."}, "Aβ42 [4]": {"test_system": "Aβ42", "conditions": "CHO-APPswe cells, 0.1 micromolar, 24 hours", "procedure": "as §2"}, "PGE2": {"test_system": "PGE2", "conditions": "mice, same brain, nimesulide 1500 mg/kg of diet for three months"}, "Aβ40 [5]": {"test_system": "Aβ40", "conditions": "CHO cells with APPswe and hCOX-2, nimesulide concentrations down to 10^−12 M", "text": "FIG. 10A-C. […] (C) Aβ42 levels in CHO cells transfected with APPswe and LacZ (open bars) or with APPswe and hCOX-2 (filled bars). Data are expressed as means±S.E.M. (percent of control LacZ transfection from three independent studies).\nUsing an adenovirus vector, hCOX-2 was transfected and expressed in CHO cells which had been stably transfected with APPswe (see above)."}, "clinical": {"test": "clinical", "conditions": "human, po, 100 mg twice daily", "procedure": "A tolerability study was performed in elderly human subjects (Aisen et al., 2002, Neurology 58(7):1050-1054)."}, "[6]": {"conditions": "mice"}, "γ-secretase [7]": {"test_system": "γ-secretase", "conditions": "CHO-APPswe cells, 0.1 micromolar, 24 hours"}, "complement ClqB": {"test_system": "complement ClqB", "conditions": "in vivo; cited from earlier work"}, "Aβ42 [8]": {"test_system": "Aβ42", "text": "as §1"}, "[9]": {"conditions": "CHO-APPswe cells transfected with hCOX-2, 10^−9 molar"}}, "note": "Where two headings read alike, the source gives them in different places.", "data": [{"smiles": "CS(=O)(=O)c1ccc(C2=C(c3ccccc3)C(=O)OC2)cc1", "note": "[Rofecoxib]", "values": [{"measurement": "levels of sAPPα relative to controls (6E10 immunoreactivity)", "setting": "sAPPα", "result": "decreased"}]}, {"smiles": "CS(=O)(=O)Nc1ccc([N+](=O)[O-])cc1Oc1ccccc1", "note": "[nimesulide, 4-nitro-2-phenoxymethanesulfonanilide]", "values": [{"measurement": "tolerability, long term treatment", "setting": "[1]; clinical study, up to 104 weeks", "result": "well tolerated"}, {"measurement": "cognitive benefit in AD patients", "setting": "[1]; twelve-week clinical trial", "result": "no cognitive benefit was observed"}, {"measurement": "tolerability in AD patients", "setting": "[1]; twelve-week clinical trial", "result": "well tolerated"}, {"measurement": "Kp at 3 months", "setting": "in vivo", "result": "~0.1"}, {"measurement": "effect on hCOX-2 mediated increase of γ-secretase activity", "setting": "γ-secretase [2]; [9]", "result": "decreased to control levels"}, {"measurement": "additional decrease of γ-secretase levels", "setting": "γ-secretase [2]; both hCOX-2 and LacZ-transfected CHO-APPswe cells, 10^−6 molar", "result": "10-15%"}, {"measurement": "decrease of the amount of Aβ40", "setting": "Aβ40 [3]", "result": "20-25%"}, {"measurement": "decrease of the amount of Aβ42", "setting": "Aβ42 [4]", "result": "20-25%"}, {"measurement": "decrease of PGE2 content", "setting": "PGE2", "result": "approximately 50%"}, {"measurement": "effect on hCOX-2 mediated increase in Aβ40 levels", "setting": "Aβ40 [5]", "result": "virtually nullified"}, {"measurement": "concentration at 24 weeks", "setting": "clinical; brain", "result": "~1", "unit": "µM"}, {"measurement": "concentration at 24 weeks", "setting": "clinical; serum", "result": "~10", "unit": "µM"}, {"measurement": "necropsy findings", "setting": "[6]; nimesulide 1500 mg/kg of diet (50 mg/kg per day) for 3 months", "result": "did not demonstrate any gross alterations or renal or intestinal abnormalities"}, {"measurement": "tolerability", "setting": "[6]; nimesulide 1500 mg/kg of diet for 3 months", "result": "well tolerated"}, {"measurement": "inhibition of γ-secretase activity", "setting": "γ-secretase [7]", "result": "approximately 40%"}, {"measurement": "effect on hCOX-2 induced increase of ClqB levels in the brain", "setting": "complement ClqB", "result": "able to block that increase"}, {"measurement": "effect on hCOX-2 increased Aβ42 concentration", "setting": "Aβ42 [8]; CHO-APPswe cells transfected with hCOX-2, 10^−6 molar", "result": "decreased to essentially control levels"}, {"measurement": "effect on hCOX-2 increased Aβ42 concentration", "setting": "Aβ42 [8]; [9]", "result": "slightly decreased"}]}]}
